Experimental data published in patent US20230219962A1, “PYRAZOLO[4,3-d]PYRIMIDINE DERIVATIVES AND METHODS OF USE THEREOF FOR THE TREATMENT OF CELLULAR PROLIFERATIVE DISORDERS” (Merck Sharp & Dohme LLC, priority 2020, published 2023).

Key:
hTLR7 = target: T1, hTLR7 (Homo sapiens, UniProt Q9NYK1); assay: Human TLR7 Reporter Assay; format: cell-based; details: HEK-Blue hTLR7 cells, 16 hours, normalized to CL097 (6 μM) and DMSO
T1 construct: host or cells: HEK-Blue hTLR7 cells (HEK293-derived, own knowledge)
T1 sequence (Q9NYK1 27-1049): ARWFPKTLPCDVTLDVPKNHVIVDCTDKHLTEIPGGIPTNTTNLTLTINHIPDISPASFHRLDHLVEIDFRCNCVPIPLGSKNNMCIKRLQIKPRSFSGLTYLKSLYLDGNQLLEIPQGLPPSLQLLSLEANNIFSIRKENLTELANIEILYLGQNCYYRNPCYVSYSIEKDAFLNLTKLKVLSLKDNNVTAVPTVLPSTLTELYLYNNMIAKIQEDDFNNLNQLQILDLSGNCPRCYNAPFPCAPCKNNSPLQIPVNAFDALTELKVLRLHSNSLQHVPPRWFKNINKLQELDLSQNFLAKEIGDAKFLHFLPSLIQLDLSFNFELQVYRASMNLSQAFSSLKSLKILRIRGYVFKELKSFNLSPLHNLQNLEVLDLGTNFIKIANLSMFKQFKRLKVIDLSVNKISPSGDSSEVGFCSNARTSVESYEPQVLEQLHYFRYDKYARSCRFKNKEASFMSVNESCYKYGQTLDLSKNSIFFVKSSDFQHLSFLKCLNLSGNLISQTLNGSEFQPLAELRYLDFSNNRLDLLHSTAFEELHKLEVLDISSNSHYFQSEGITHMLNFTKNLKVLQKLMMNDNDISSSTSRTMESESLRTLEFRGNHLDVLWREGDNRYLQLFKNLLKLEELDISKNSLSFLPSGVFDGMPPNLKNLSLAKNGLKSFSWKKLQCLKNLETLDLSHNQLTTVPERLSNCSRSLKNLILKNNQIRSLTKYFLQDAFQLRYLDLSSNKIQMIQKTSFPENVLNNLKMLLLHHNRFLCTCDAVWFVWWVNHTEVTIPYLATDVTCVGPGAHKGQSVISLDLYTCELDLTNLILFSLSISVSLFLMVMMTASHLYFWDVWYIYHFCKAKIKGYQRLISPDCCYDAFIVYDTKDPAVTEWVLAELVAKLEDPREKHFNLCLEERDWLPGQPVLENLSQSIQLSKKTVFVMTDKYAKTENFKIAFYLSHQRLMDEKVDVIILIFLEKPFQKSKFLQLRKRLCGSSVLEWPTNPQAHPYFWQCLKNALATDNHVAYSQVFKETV
Method in brief: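 HEK-Blue hTLR7 reporter cells (20,000/well) incubated 16 h at 37 °C with 10-point 3-fold compound dilutions; SEAP read by absorbance at 620 nm. Effects normalized between CL097 (6 μM) and DMSO controls; EC50 from 4-parameter fit.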

hTLR8 = target: T2, hTLR8 (Homo sapiens, UniProt Q9NR97); assay: Human TLR8 Reporter Assay; format: cell-based; details: HEK-Blue hTLR8 cells, 16 hours, normalized to tl8-506 (1 μM) and DMSO
T2 construct: host or cells: HEK-Blue hTLR8 cells (HEK293-derived, own knowledge)
T2 sequence (Q9NR97 27-1041): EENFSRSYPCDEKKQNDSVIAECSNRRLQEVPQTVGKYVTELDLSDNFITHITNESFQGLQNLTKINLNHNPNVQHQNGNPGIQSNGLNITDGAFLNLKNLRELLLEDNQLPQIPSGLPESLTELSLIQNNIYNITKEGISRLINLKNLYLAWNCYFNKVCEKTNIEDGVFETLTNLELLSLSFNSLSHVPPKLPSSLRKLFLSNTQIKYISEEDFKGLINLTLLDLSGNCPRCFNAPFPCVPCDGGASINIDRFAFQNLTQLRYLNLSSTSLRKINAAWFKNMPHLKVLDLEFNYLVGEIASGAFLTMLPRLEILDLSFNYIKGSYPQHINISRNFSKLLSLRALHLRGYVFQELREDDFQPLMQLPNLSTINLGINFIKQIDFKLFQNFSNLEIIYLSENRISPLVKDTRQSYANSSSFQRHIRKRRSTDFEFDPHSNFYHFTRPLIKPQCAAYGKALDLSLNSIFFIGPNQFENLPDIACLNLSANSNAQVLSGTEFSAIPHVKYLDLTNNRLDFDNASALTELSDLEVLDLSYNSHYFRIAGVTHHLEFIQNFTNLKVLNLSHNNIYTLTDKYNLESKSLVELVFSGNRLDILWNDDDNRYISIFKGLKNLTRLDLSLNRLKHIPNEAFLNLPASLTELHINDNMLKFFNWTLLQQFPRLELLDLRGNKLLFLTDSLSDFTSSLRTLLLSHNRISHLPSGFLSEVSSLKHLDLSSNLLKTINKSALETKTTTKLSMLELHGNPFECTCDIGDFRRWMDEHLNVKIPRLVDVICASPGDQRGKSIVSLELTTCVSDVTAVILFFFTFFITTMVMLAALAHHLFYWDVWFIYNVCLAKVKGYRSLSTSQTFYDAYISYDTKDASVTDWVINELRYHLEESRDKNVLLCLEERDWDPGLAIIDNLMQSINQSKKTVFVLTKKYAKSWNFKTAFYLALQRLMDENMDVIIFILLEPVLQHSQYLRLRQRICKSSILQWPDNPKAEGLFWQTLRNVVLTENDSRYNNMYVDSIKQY
Method in brief: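 HEK-Blue hTLR8 cells (20,000/well) incubated 16 h at 37 °C with 10-point 3-fold compound dilutions in HEK-Blue Detection medium; reporter read as absorbance at 620 nm. Effects normalized between DMSO and tl8-506 (1 μM); EC50 from 4-parameter fit.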

EC50 (hTLR7) | EC50 (hTLR8) | SMILES
0.707 µM | > 9.98 µM | CCCC(Nc1nc(N)nc2cn(Cc3c(OC)cccc3OC)nc12)C(F)(F)F (centres unmarked) [Compound 126]
0.0507 µM | 1.09 µM | CCCCNc1nc(N)nc2cn(Cc3ccc(C(C)N(C)CCC)cc3OC)nc12 (centres unmarked) [Compound 240]
0.0818 µM | 0.597 µM | CCCCNc1nc(N)nc2cn(Cc3nccnc3OC)nc12 [Compound 111]
0.539 µM | 3.26 µM | CCCCNc1nc(N)nc2cn(Cc3ccc(C4CCC(=O)N4)cc3)nc12 (centres unmarked) [Compound 201]
2.65 µM | 2.56 µM | CCCCNc1nc(N)nc2cn(Cc3c(OC)ccc(CN4CCNCC4)c3OC)nc12 [Compound 78]
1.59 µM | 0.785 µM | CCC[C@@H](CO)Nc1nc(N)nc2cn(Cc3ncc(CNC)cc3OC)nc12 [Compound 195]
10.7 µM | 10.8 µM | CCCCNc1nc(N)nc2cn(Cc3ccc(C(N)CN)cc3OC)nc12 (centres unmarked) [Compound 227]
1.08 µM | 4.15 µM | CCC[C@@H](CO)Nc1nc(N)nc2cn(Cc3c(OC)cc(CNC)cc3OC)nc12 [Compound 154]
0.681 µM | 2.81 µM | CCCCNc1nc(N)nc2cn(Cc3ccnn3CC)nc12 [Compound 177]
0.964 µM | 2.64 µM | CCCCNc1nc(N)nc2cn(Cc3cc(N4CCNCC4)ccc3OC)nc12 [Compound 59]
0.16 µM | 1.01 µM | CCCCNc1nc(N)nc2cn(Cc3nc(NCCCN)ccc3OC)nc12 [Compound 162]
2.04 µM | 4.96 µM | CCCCNc1nc(N)nc2cn(Cc3ncc(CN4CCNCC4)cc3OC)nc12 [Compound 94]
0.214 µM | 1.01 µM | CCCCCNc1nc(N)nc2cn(Cc3c(OC)cccc3OC)nc12 [Compound 28]
1.06 µM | 3.14 µM | CCC[C@@H](CO)Nc1nc(N)nc2cn(Cc3ccc(N4CCN(C(=O)C5CCC(CN6C(=O)C=CC6=O)CC5)CC4)cc3OC)nc12 (some centres unmarked) [Compound 153]
3.33 µM | > 29.9 µM | CCCCNc1nc(N)nc2cn(Cc3c(OC)cc(CN4CCN(C(=O)C5CCC(CN6C(=O)C=CC6=O)CC5)CC4)cc3OC)nc12 (centres unmarked) [Compound 74]
0.329 µM | 5.59 µM | CCCCNc1nc(N)nc2cn(Cc3ccc(N4CCN(C(=O)[C@H]5CC[C@H](CN)CC5)CC4)cc3OC)nc12 [Compound 115]
